# Test results from ChEMBL document CHEMBL5543112, “Discovery of CBPD-268 as an Exceptionally Potent and Orally Efficacious CBP/p300 PROTAC Degrader Capable of Achieving Tumor Regression” (J Med Chem, 2024).
# Activity calls are given as the source filed them. The calls are words filed in the database; no cut-off is given here.
# What was measured:
# [1] = Metabolic stability in rat liver microsome assessed as half life measured upto 60 mins in presence of NADPH by LC-MS/MS analysis; format: ADME; details: liver microsomes
# [2] = Clearance in Sprague-Dawley rat at 1 mg/kg, iv measured upto 24 hrs by LC/MS-MS analysis; format: ADME, organism-based; details: in vivo
# [3] = Drug distribution in Sprague-Dawley rat heart at 3 mg/kg, po measured at 6 hrs by LC-MS/MS analysis; format: ADME, organism-based; details: read-out: Ct
# [4] = Drug distribution in SCID mouse liver at 0.3 mg/kg, po measured at 6 hrs by LC-MS/MS analysis; format: ADME, organism-based; details: read-out: Ct
# [5] = Drug distribution in SCID mouse liver at 1 mg/kg, po measured at 24 hrs by LC-MS/MS analysis; format: ADME, organism-based; details: read-out: Ct
# LNCaP = assay: Antiproliferative activity against human LNCaP cells assessed as cell growth inhibition incubated for 4 days by celtiter-glo luminescent assay; details: 96 h
# [6] = Drug concentration in SCID mouse plasma at 1 mg/kg, po measured at 6 hrs by LC-MS/MS analysis; format: ADME, organism-based
# [7] = Drug distribution in Sprague-Dawley rat plasma at 10 mg/kg, po measured at 24 hrs by LC-MS/MS analysis; format: ADME, organism-based
# Cytochrome P450 2C9 = Cytochrome P450 2C9 (Homo sapiens, UniProt P11712); assay: Inhibition of CYP2C9 (unknown origin) preincubated with compound for 5 mins followed by NADPH addition and measured after 10 mins by LC-MS/MS analysis; format: ADME
# Sequence of Cytochrome P450 2C9 (P11712 whole entry): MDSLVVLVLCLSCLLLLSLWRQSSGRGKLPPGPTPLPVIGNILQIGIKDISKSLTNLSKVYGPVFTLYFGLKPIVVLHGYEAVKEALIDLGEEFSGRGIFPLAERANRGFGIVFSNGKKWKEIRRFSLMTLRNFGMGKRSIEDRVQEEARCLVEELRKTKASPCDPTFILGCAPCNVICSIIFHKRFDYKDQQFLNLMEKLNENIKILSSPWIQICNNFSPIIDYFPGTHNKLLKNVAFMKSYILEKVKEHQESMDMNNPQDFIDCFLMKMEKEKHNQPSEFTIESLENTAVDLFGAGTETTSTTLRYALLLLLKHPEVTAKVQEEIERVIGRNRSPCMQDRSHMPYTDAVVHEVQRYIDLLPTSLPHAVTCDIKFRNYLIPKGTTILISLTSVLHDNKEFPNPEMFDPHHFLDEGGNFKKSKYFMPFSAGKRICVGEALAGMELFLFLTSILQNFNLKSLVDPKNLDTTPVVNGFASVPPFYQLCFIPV
# [8] = Drug distribution in Sprague-Dawley rat plasma at 3 mg/kg, po measured at 6 hrs by LC-MS/MS analysis; format: ADME, organism-based
# CWR22R [9] = assay: Antitumor activity against human 22Rv1 cells xenografted in SCID mouse assessed as tumor growth inhibition at 3 mg/kg, po administered 3 times a week for 3 weeks; format: functional; details: 22Rv1, 504 h, read-out: TGI
# [10] = Toxicity in immune-competent Sprague-Dawley rat assessed as change in neutrophil at 1 to 10 mg/kg, po administered twice a week for 5 weeks; format: organism-based; details: in vivo, 840 h, dose 1-10 mg/kg
# [11] = Drug distribution in SCID mouse spleen at 0.3 mg/kg, po measured at 6 hrs by LC-MS/MS analysis; format: ADME, organism-based; details: read-out: Ct
# [12] = Drug distribution in Sprague-Dawley rat plasma at 10 mg/kg, po measured at 1 hr by LC-MS/MS analysis; format: ADME, organism-based
# [13] = Drug distribution in SCID mouse plasma at 1 mg/kg, po measured at 6 hrs by LC-MS/MS analysis; format: ADME, organism-based
# [14] = Drug distribution in SCID mouse tumor at 0.3 mg/kg, po measured at 1 hr by LC-MS/MS analysis; format: ADME, organism-based, Neoplasm; details: read-out: Ct
# [15] = Chemical stability of the compound assessed as parent compound remaining measured at 7 hrs; format: physicochemical; details: read-out: Stability
# [16] = Drug distribution in SCID mouse spleen at 1 mg/kg, po measured at 6 hrs by LC-MS/MS analysis; format: ADME, organism-based; details: read-out: Ct
# CWR22R [17] = assay: Antitumor activity against human 22Rv1 cells xenografted in SCID mouse assessed as reduction in BRD2 level in tumor at 1 to 3 mg/kg, po measured at 6 to 24 hrs by Western blotting analysis; format: functional, organism-based; details: dose 1-3 mg/kg, time 6-24 hrs
# [18] = Drug distribution in Sprague-Dawley rat kidney at 10 mg/kg, po measured at 6 hrs by LC-MS/MS analysis; format: ADME, organism-based; details: read-out: Ct
# [19] = Drug distribution in SCID mouse plasma at 1 mg/kg, po measured at 1 hr by LC-MS/MS analysis; format: ADME, organism-based
# [20] = Drug distribution in SCID mouse spleen at 3 mg/kg, po measured at 24 hrs by LC-MS/MS analysis; format: ADME, organism-based; details: read-out: Ct
# [21] = biological target: T1, Protein cereblon/histone acetyltransferase (Rattus norvegicus, UniProt Q56AP7+Q91XT0); assay: PROTAC activity at p300/CRBN in rat RG2 cells assessed as induction of p300 degradation; format: cell-based
# T1 sequence (Q56AP7 whole entry): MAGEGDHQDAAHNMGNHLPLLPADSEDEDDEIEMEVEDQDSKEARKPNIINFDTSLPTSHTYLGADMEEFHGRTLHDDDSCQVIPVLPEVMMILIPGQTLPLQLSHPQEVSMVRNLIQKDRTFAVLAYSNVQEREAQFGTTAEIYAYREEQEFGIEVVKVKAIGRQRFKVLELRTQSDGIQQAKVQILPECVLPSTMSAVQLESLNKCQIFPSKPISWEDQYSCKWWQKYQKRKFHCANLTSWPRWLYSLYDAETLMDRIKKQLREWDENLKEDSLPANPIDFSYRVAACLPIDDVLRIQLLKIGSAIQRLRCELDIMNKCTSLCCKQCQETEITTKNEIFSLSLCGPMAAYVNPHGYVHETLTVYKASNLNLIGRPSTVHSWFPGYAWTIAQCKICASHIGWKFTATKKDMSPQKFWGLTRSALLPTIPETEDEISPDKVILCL
# T1 sequence (Q91XT0 whole entry): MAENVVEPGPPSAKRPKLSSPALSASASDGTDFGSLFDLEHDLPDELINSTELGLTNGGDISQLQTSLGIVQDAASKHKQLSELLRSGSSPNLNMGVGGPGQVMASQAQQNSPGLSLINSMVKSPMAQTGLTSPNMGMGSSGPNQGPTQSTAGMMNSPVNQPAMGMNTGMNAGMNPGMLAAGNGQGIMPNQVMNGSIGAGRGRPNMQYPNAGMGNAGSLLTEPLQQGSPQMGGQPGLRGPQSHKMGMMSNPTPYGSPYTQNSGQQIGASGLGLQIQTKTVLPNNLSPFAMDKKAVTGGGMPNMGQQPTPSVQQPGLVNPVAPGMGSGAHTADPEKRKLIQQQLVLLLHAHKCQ
# [22] = Volume of distribution at steady state in ICR mouse at 1 mg/kg, iv measured upto 24 hrs by LC/MS-MS analysis; format: ADME, organism-based; details: in vivo
# CWR22R [23] = assay: Antitumor activity against human 22Rv1 cells xenografted in SCID mouse assessed as reduction in BRD3 level in tumor at 1 to 3 mg/kg, po measured at 6 to 24 hrs by Western blotting analysis; format: functional, organism-based; details: dose 1-3 mg/kg, time 6-24 hrs
# [24] = Cmax in Sprague-Dawley rat at 3 mg/kg, po measured upto 24 hrs by LC/MS-MS analysis; format: ADME, organism-based; details: in vivo
# [25] = Drug distribution in SCID mouse spleen at 3 mg/kg, po measured at 6 hrs by LC-MS/MS analysis; format: ADME, organism-based; details: read-out: Ct
# [26] = Metabolic stability in mouse liver microsome assessed as half life measured upto 60 mins in presence of NADPH by LC-MS/MS analysis; format: ADME; details: liver microsomes
# [27] = Drug distribution in Sprague-Dawley rat kidney at 3 mg/kg, po measured at 1 hr by LC-MS/MS analysis; format: ADME, organism-based; details: read-out: Ct
# [28] = Drug distribution in Sprague-Dawley rat liver at 10 mg/kg, po measured at 6 hrs by LC-MS/MS analysis; format: ADME, organism-based; details: read-out: Ct
# [29] = Toxicity in immune-competent Sprague-Dawley rat assessed as change in white blood cells count at 1 to 10 mg/kg, po administered twice a week for 5 weeks; format: organism-based; details: in vivo, 840 h, dose 1-10 mg/kg
# VCaP = assay: Antitumor activity against human VCaP cells xenografted in SCID mouse assessed as tumor regression at 3 mg/kg, po administered 3 times a week for 4 weeks; format: functional
smiles,measurement,setting,value
CC(=O)N1CCc2c(c(N3CCCc4cc(-c5cnn(C)c5)c(C(F)F)cc43)nn2[C@H]2CC[C@H](CN3Cc4cc5c(cc4C3)C(=O)N(C3CCC(=O)NC3=O)C5=O)CC2)C1 (some centres not stated),half-life,[1],1.08 h
same,clearance,[2],34.6 mL/min/kg
same,concentration at 6 h,[3],26.4 ng/g
same,concentration at 6 h,[4],86.8 ng/mL
same,concentration at 24 h,[5],13.7 ng/mL
same,IC50,LNCaP,10.3 nM
same,concentration at 6 h,[6],14.1 ng/mL
same,concentration at 24 h,[7],1.3 ng/mL
same,IC50,Cytochrome P450 2C9,> 10000 nM
same,concentration at 6 h,[8],13.1 ng/mL
same,inhibition in vivo at 3 mg/kg,CWR22R [9],83%
same,Activity,[10],Non-Toxic
same,concentration at 6 h,[11],27.4 ng/mL
same,concentration at 1 h,[12],321 ng/mL
same,concentration at 6 h,[13],43.2 ng/mL
same,concentration at 1 h,[14],27.8 ng/g
same,remaining at 7 h,[15],< 10%
same,concentration at 6 h,[16],127 ng/mL
same,Activity,CWR22R [17],Active
same,concentration at 6 h,[18],224 ng/g
same,concentration at 1 h,[19],212 ng/mL
same,concentration at 24 h,[20],21.2 ng/mL
same,DC50,[21],0.3 nM
same,Vdss,[22],4.9 L/kg
same,Activity,CWR22R [23],Active
same,Cmax,[24],221 ng/mL
same,concentration at 6 h,[25],738 ng/mL
same,half-life,[26],> 2 h
same,concentration at 1 h,[27],514 ng/g
same,concentration at 6 h,[28],541 ng/g
same,Activity,[29],Non-Toxic
same,Activity,VCaP,67%
